Measured values reported in patent US11332438B2, “Creatine prodrugs, compositions and methods of use thereof” (Ultragenyx Pharmaceutical Inc., priority 2017, dated 2022).
Entries after “also recorded” stand apart in the source; their conditions may differ.

What was measured:
[1] = d3-Creatine and d3-creatinine concentration in CrT KO mice brain after IV bolus dose (FIGS. 3 and 4, Table 6); type: in vivo; conditions: CrT KO mice brain, 8 h after IV bolus dose
Experimental: The brain concentrations of d3-creatine and d3-creatinine was measured in CrT KO mice following 10 mg/kg single dose IV bolus dose of compound 14 and 15 (FIGS. 3 and 4). As shown by FIG. 3, brain d3-creatine concentration was higher following administration of compound 15 compared to compound 14. […] Without bound to any theory, the macrocyclic compound 15 prodrug reduces d3-creatine cyclization to d3-creatinine when compared to linear compound 14 prodrug.
The concentration of d3-creatine in CrT KO mice brain were also measured for other compounds disclosed in the present application as shown in Table 6. The concentrations of d3-creatine, d3-creatinine and creatine prodrugs are measured by LC-MS/MS. The brain sample is homogenized with 4× (weight to volume) of KPI 100 mM buffer containing anti-proteases and anti-phosphatases (if needed). 50 μl of brain homogenate is then de-proteinized using 4× volume/volume of a solution containing 80% acetonitrile and 20% water with bucetin, d5-Cr (internal standard). The plate is then spun at 4000 rpm, 10 minutes, 4° C. and samples are transferred to a new plate for bioanalysis. Each analyte in each sample was quantitated against a curve in matching biomatrix using an authentic standard.

[2] = Chemical stability in phosphate buffered saline (PBS); type: physicochemical; conditions: Table 2A, 50 μM prodrug
How it was run: (§1)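 Incubations used 50 μM compound at 37 °C in phosphate buffered saline, fasted simulated intestinal fluid without pancreatin, or fasted simulated gastric fluid without pepsin.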

[3] = Chemical stability in simulated intestinal fluid (SIF) without pancreatin; type: physicochemical; conditions: Table 2A, 50 μM prodrug
Experimental: Chemical stability of creatine prodrugs in phosphate buffered saline (PBS), simulated intestinal fluid (SIF) without pancreatin, simulated gastric fluid (SGF) without pepsin were determined by LC-UV, LC-CAD, LC-UV-CAD or LC-MS/MS as appropriate. Creatine prodrugs of the present disclosure (50 μM) were incubated at 37° C. according to described protocols and prodrug levels were compared between t=0, t=15, t=60, and t=120 mins by peak area ratio to determine the percentage remained at t=120 mins (2 h).
Protocol for PBS, SIF and SGF stability for screening:
Prodrugs (50 μM) were incubated in PBS, FaSSIF (Biorelevant) or FaSSGF (Biorelevant) at 37° C.

[4] = Prodrug cleavage in human brain homogenates (HBH): d3-Cr release and d3-Crn cyclization; type: in vitro ADME; conditions: for Prodrug Cleavage Human BH d3-Crn release / Prodrug Cleavage Human BH net d3-Cr release: 200 μM prodrug, 3 h, % of nominal input; for Prodrug Cleavage Human BH net d3-Cr release: negative control subtracted
Experimental: (§2) For assessment of the ability of prodrugs to release creatine, and to release creatine preferentially to unwanted cyclization to creatinine, d3-labeled (deuterium labeled methyl group) prodrugs are incubated with brain homogenates (e.g., mouse, human) specially prepared to preserve FAAH activity or with rFAAH for direct cleavage study. The use of d3-labelled prodrugs is essential in order to distinguish prodrug-derived creatine (d3-creatine) from high concentrations of endogenous (non-labeled) creatine. […] Prodrugs are tested at final concentrations of 20 μM and 200 μM. Approximately 3-4 mg of homogenate is used for each reaction. Co-factor (NADPH) is included at a final concentration of 1 mM. FAAH activity is confirmed by conversion of 7-amino-4-methyl Coumarin-Arachidonamide to 7-amino-4-methyl Coumarin by fluorescent assay. Negative controls include incubations without brain homogenate/rFAAH (but with NADPH) or 65° C. heat inactivated brain homogenate/rFAAH to assess non-enzymatic prodrug cleavage under the conditions of the assay and FAAH inhibitor […] at the concentration of 1 μM. Prodrug incubations are prepared by addition of 8 μL of prodrug stock solution (500 or 5000 μM in DMSO or DMSO/methanol) to assay buffered, followed by addition of brain homogenate/rFAAH. […] The samples are centrifuged at 15890×g for 10 minutes at 4° C., followed by transfer of the supernatants for storage at −20° C. pending LC-MS/MS analysis. Sample supernatants are analyzed by LC-MS/MS for determination of d3-prodrug, d3-creatine and d3-creatinine levels.
(§3) Deuterated creatine prodrugs were tested in 3 different in vitro assays to assess d3-creatine (d3-Cr) release and cyclization to form d3-creatinine (d3-Crn). These assays were 1) direct cleavage with recombinant human FAAH enzyme (rFAAH), 2) cleavage in mouse brain homogenates (MBH), and 3) human brain homogenates (HBH).
(§4) Creatine prodrug cleavage efficiency was determined by percentage of net d3-Cr release in μM (positive reaction subtracted from negative control of no brain homogenate/rFAAH or inactivated brain homogenate/rFAAH) over nominal input concentration of 200 μM prodrug at 3 h. Propensity for creatinine cyclization was determined by percentage of d3-Crn generated in μM in positive reaction over nominal input concentration of 200 μM prodrug at 3 h.

[5] = In vivo IV dosing in CrT KO mice: prodrug, d3-Cr and d3-Crn in brain (Table 5); conditions: brain, CrT KO mice
How it was run: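 CrT KO mice received prodrugs by IV injection at 10, 15 or 25 mg/kg. Brains were collected, flash frozen and homogenized in 100 mM KPI buffer with anti-proteases. Prodrug, d3-Cr and d3-Crn were quantified by LC-MS/MS and expressed as brain concentration (macrocycles) or AUC over time (linear prodrugs).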

[6] = Chemical stability in simulated gastric fluid (SGF) without pepsin; type: physicochemical; conditions: Table 2A, 50 μM prodrug
How it was run: as §1

[7] = biological target: T1, recombinant human FAAH enzyme (rFAAH) (Homo sapiens, UniProt O00519); experiment: Direct prodrug cleavage with recombinant human FAAH enzyme (rFAAH): d3-Cr release and d3-Crn cyclization; type: biochemical; conditions: 200 μM prodrug, 3 h, % of nominal input; for Prodrug Cleavage rFAAH net d3-Cr release: negative control subtracted
T1 sequence (O00519 1-579): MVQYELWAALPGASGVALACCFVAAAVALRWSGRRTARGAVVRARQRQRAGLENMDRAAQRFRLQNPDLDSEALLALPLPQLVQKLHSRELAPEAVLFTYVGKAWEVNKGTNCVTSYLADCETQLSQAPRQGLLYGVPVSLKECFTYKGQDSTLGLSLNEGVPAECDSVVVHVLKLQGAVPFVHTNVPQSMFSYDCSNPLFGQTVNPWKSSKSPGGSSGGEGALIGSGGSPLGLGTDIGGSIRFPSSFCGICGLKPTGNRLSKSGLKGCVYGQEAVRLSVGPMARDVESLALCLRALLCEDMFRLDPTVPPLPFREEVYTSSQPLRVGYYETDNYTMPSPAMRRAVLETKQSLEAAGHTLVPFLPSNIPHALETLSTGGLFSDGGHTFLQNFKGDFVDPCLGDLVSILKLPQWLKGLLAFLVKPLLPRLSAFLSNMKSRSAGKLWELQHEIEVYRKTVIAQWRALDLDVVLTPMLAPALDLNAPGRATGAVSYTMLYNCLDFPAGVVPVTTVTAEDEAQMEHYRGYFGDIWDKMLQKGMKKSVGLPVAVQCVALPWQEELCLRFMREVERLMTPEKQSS
Experimental: as §2, §3, §4

ARPE-19 cells = experiment: Creatine prodrug uptake and d3-creatine release in ARPE-19 cells (Table 4A); type: cell-based, human; conditions: 50 μM, 6 h, cytosol fraction, corrected for total protein
Experimental: At the end of the incubation, supernatant will be collected from each well to assess prodrug recovery. Cells are then washed 3× with PBS. Plates, prodrugs in supernatant, prodrugs in serum-free medium are stored at −80° C. until harvest (within 5 days). On the day of extraction, 130 uL of lysis buffer (10 mM Tris pH 7.4) with EDTA-free protease inhibitors is added to each well and cells are removed using a cell scraper. Lysates are further homogenized using a handheld pestle and then centrifuged at 16,000 g, […], for 10 minutes to collect cytosol fraction. Pellets will be stored at −80° C. until further analysis. A 4× volume of stop solution (80% ACN/20% water) will be added to the cytosol fraction, supernatant and medium. Samples will be centrifuged at 15,890 g (13,000 rpm) at 4° C. for 10 mins. Supernatant will be collected and stored at −80° C. within 5 days prior to LC-MS/MS analysis. Dosing solutions for each prodrug (10 μM) will be assayed to verify concentration. Cells alone with vehicle will serve as controls to assess background signal for LC-MS/MS. Two independent runs of experiment will be conducted.
Nine fatty acid amide creatine prodrugs were tested in human ARPE-19 cells to assess prodrug uptake and d3-Cr release inside the cells. 50 μM of prodrug was incubated in culture medium with the cells and the cells were harvested at 6 h. Quantitation of prodrugs, d3-Cr (d3-creatine) and d3-Cm (d3-creatinine) in the cytosol fraction was corrected for total protein concentration.

[8] = in vitro cleavage assays (Table 3A)

Structure (SMILES) | Concentration of d3-Cr in CrT KO mice brain [1] | Chemical Stability PBS % T0 at 2 hours at 37 °C. [2] | Chemical Stability SIF, no enzyme % T0 at 2 hours at 37 °C. [3] | Prodrug Cleavage Human BH d3-Crn release [4] | Prodrug Cleavage Human BH net d3-Cr release [4] | d3-Cr release in vitro (in words) [4, 8] | d3-Crn (creatinine) cyclization in vitro (in words) [4, 8] | d3-Cr/d3-Crn release ratio in vivo (in words) [5] | Chemical Stability SGF, no enzyme % T0 at 2 hours at 37 °C. [6] | Prodrug Cleavage rFAAH d3-Crn release [7] | Prodrug Cleavage rFAAH net d3-Cr release [7] | d3-Cr, Cellular Uptake (ARPE-19 cells) | d3-Crn, Cellular Uptake (ARPE-19 cells) | prodrug, Cellular Uptake (ARPE-19 cells)
[2H]C([2H])([2H])N1CC(=O)OC(CCCCC)CCCCCC(=O)NC1=N (stereo not drawn) [Compound FF, 5-Imino-4-trideuteriomethyl-13-pentyl-1-oxa-4,6-diazacyclotridecane-2,7-dione] | BLOQ |  |  |  |  |  |  |  |  |  |  |  |  | 
Cl.[2H]C([2H])([2H])N(CC(=O)OC(C)C)C(=N)NC(=O)CCCCCCCCCCCC [Compound 10-HCl] |  | 11% | 46% | 251.5% | 4.3% | small amount of d3-Cr | predominantly cyclized into creatinine; also recorded: predominantly creatinine cyclization | favorable d3-Cr/d3-Crn ratio | 83% | 217.0% | 1.2% |  |  | 
[2H]C([2H])([2H])N(CC(=O)[O-])C(=N)NC(=O)CCCCCCCCCCCCC.[Li+] [Compound 7, Lithium 2-(1-trideuteriomethyl-3-tetradecanoylguanidino) Acetate] |  | 90% | 77% | 0.8% | 50.8% |  |  |  | 63% | 1.7% | 146.0% | 18.6 nmol/mg protien | <0.2 nmol/mg protien | 13.1 nmol/mg protien
